For this assay, the system named is P388 leukemia ip, CD2F1 mice, survival T/C. Put plainly: NCI In Vivo Anticancer Drug Screen. Data for tumor model P388 Leukemia (intraperitoneal) in CD2F1 (CDF1) mice. The settings on record: endpoint: median survival time, higher = longer survival. The essentials: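 Mice carrying the transplanted tumor received test compound or vehicle. Survival was recorded in each group, and the value is the treated-group measurement divided by that of the vehicle-treated control group.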

Where [1] appears, read: dose: 100.0 mg/kg/injection, schedule: Q01DX009 (ip), vehicle: saline with Tween-80.
Where [2] appears, read: dose: 100.0 mg/kg/injection, schedule: Q04DX003 (ip), vehicle: saline with Tween-80.
Where [3] appears, read: dose: 200.0 mg/kg/injection, schedule: Q01DX009 (ip), vehicle: saline with Tween-80.
Setting [4] is: dose: 200.0 mg/kg/injection, schedule: Q04DX003 (ip), vehicle: saline with Tween-80.
[5] abbreviates: dose: 50.0 mg/kg/injection, schedule: Q01DX009 (ip), vehicle: Klucel (hydroxypropylcellulose) (HPC).
The mark [6] stands for this setting: dose: 100.0 mg/kg/injection, schedule: Q01DX009 (ip), vehicle: Klucel (hydroxypropylcellulose) (HPC).
The mark [7] stands for this setting: dose: 200.0 mg/kg/injection, schedule: Q01DX009 (ip), vehicle: Klucel (hydroxypropylcellulose) (HPC).
Setting [8] is: dose: 50.0 mg/kg/injection, schedule: Q01DX005 (ip), vehicle: saline with Tween-80.
The mark [9] stands for this setting: dose: 60.0 mg/kg/injection, schedule: Q01DX005 (ip), vehicle: saline with Tween-80.
Where [10] appears, read: dose: 120.0 mg/kg/injection, schedule: Q01DX005 (ip), vehicle: saline with Tween-80.
Setting [11] is: dose: 240.0 mg/kg/injection, schedule: Q01DX005 (ip), vehicle: saline with Tween-80.
The mark [12] stands for this setting: dose: 50.0 mg/kg/injection, schedule: Q01DX009 (ip), vehicle: saline with Tween-80.
[13] abbreviates: dose: 100.0 mg/kg/injection, schedule: Q01DX005 (ip), vehicle: saline with Tween-80.
[14] abbreviates: dose: 200.0 mg/kg/injection, schedule: Q01DX005 (ip), vehicle: saline with Tween-80.

Values joined by “and” are separate entries in the source; they are usually repeats but may differ in a detail not shown here. Identical values can stand only once. Toxic doses and inconclusive results are not listed.

Regarding `O=N[O-].O=N[O-].[NH2-].[NH2-].[NH2-].[NH2-].[Ni]`, the T/C was 100 % of control (dose: 6.25 mg/kg/injection, schedule: Q01DX009 (ip), vehicle: saline) and 105 % of control (dose: 12.5 mg/kg/injection, schedule: Q01DX009 (ip), vehicle: saline).

For `OCC1CCC(O)C=C2CCCC21` (centres undefined), the T/C by setting is: (dose: 60.0 mg/kg/injection, schedule: Q01DX005 (ip), vehicle: Klucel (hydroxypropylcellulose) (HPC)) 94 % of control; (dose: 120.0 mg/kg/injection, schedule: Q01DX005 (ip), vehicle: Klucel (hydroxypropylcellulose) (HPC)) 103 % of control; (dose: 240.0 mg/kg/injection, schedule: Q01DX005 (ip), vehicle: Klucel (hydroxypropylcellulose) (HPC)) 105 % of control.

As for `CC(C)C(Sc1nc(N)nc2nc[nH]c12)C(=O)O` (centres undefined), the T/C runs as follows: under setting [1], 95 % of control; under setting [2], 95 % of control; under setting [3], 100 % of control; under setting [4], 100 % of control; (dose: 400.0 mg/kg/injection, schedule: Q01DX009 (ip), vehicle: saline with Tween-80) 104 % of control; (dose: 400.0 mg/kg/injection, schedule: Q04DX003 (ip), vehicle: saline with Tween-80) 95 % of control.

Consider `CCO`, for which the T/C (dose: 250.0 mg/kg/injection, schedule: Q01DX009 (ip), vehicle: saline with Tween-80) is 95 % of control; the T/C (dose: 0.5 % in 0.5 ml injection vol, schedule: Q01DX009 (ip), vehicle: water) is 94 % of control; the T/C (dose: 500.0 mg/kg/injection, schedule: Q01DX009 (ip), vehicle: saline with Tween-80) was 90 % of control; the T/C (dose: 1.0 % in 0.5 ml injection vol, schedule: Q01DX009 (ip), vehicle: water) was 92 % of control; the T/C (dose: 1000.0 mg/kg/injection, schedule: Q01DX009 (ip), vehicle: saline with Tween-80) is 95 % of control; the T/C (dose: 2.0 % in 0.5 ml injection vol, schedule: Q01DX009 (ip), vehicle: water) was 102 % of control and 94 % of control. In addition, the T/C is, setting by setting: (dose: 2000.0 mg/kg/injection, schedule: Q01DX009 (ip), vehicle: saline with Tween-80) 95 % of control; (dose: 4.0 % in 0.5 ml injection vol, schedule: Q01DX009 (ip), vehicle: water) 101 % of control and 106 % of control; (dose: 8.0 % in 0.5 ml injection vol, schedule: Q01DX009 (ip), vehicle: water) 100 % of control and 103 % of control; (dose: 16.0 % in 0.5 ml injection vol, schedule: Q01DX009 (ip), vehicle: water) 100 % of control.

In the case of `CC12CC3CC(C)(C1)CC(C/C=N/NC(N)=O)(C3)C2`, the T/C reads like this: under setting [5], 102 % of control; under setting [6], 92 % of control; under setting [7], 99 % of control.

As for `CSc1nc(N)c(I)c(Cl)n1`, the T/C was 100 % of control (dose: 50.0 mg/kg/injection, schedule: Q04DX003 (ip), vehicle: saline with Tween-80); 110 % of control (dose: 100.0 mg/kg/injection, schedule: Q01DX001 (ip), vehicle: saline); 102 % of control under setting [2]; 113 % of control (dose: 200.0 mg/kg/injection, schedule: Q01DX001 (ip), vehicle: saline); 93 % of control under setting [4]; 110 % of control (dose: 400.0 mg/kg/injection, schedule: Q01DX001 (ip), vehicle: saline).

Take `Nc1c(C(=O)O)ccc2c1C(=O)c1ccccc1C2=O`: the T/C by setting is: (dose: 6.25 mg/kg/injection, schedule: Q01DX005 (ip), vehicle: saline with Tween-80) 96 % of control; (dose: 12.5 mg/kg/injection, schedule: Q01DX005 (ip), vehicle: saline with Tween-80) 96 % of control; (dose: 25.0 mg/kg/injection, schedule: Q01DX005 (ip), vehicle: saline with Tween-80) 98 % of control; under setting [8], 103 % of control.

For `O=C(Sc1ccc(Cl)cc1)N1CCN(C(=O)Sc2ccc(Cl)cc2)CC1`, the T/C by setting is: under setting [5], 92 % of control; under setting [6], 90 % of control; under setting [7], 94 % of control.

With `O=C1C=CC(=NBr)C=C1`, the T/C under setting [9] was 108 % of control, the T/C under setting [10] was 110 % of control and the T/C under setting [11] is 108 % of control.

Consider `COc1ccc(Cc2cc3c(cc2OCC(=O)N2CCOCC2)OCO3)cc1`, for which the T/C is 97 % of control (dose: 50.0 mg/kg/injection, schedule: Q01DX005 (ip), vehicle: Klucel (hydroxypropylcellulose) (HPC)); 89 % of control (dose: 100.0 mg/kg/injection, schedule: Q01DX005 (ip), vehicle: Klucel (hydroxypropylcellulose) (HPC)); 97 % of control (dose: 200.0 mg/kg/injection, schedule: Q01DX005 (ip), vehicle: Klucel (hydroxypropylcellulose) (HPC)).

Consider `Cc1cc(O)c2c(c1)C(=O)c1c(-c3ccc(O)c4c3C(=O)c3c(O)c(C)cc(O)c3C4=O)ccc(O)c1C2=O`, for which the T/C (dose: 3.0 mg/kg/injection, schedule: Q01DX005 (ip), vehicle: Klucel (hydroxypropylcellulose) (HPC)) is 95 % of control; the T/C (dose: 6.0 mg/kg/injection, schedule: Q01DX005 (ip), vehicle: Klucel (hydroxypropylcellulose) (HPC)) is 95 % of control; the T/C (dose: 12.0 mg/kg/injection, schedule: Q01DX005 (ip), vehicle: Klucel (hydroxypropylcellulose) (HPC)) was 93 % of control; the T/C (dose: 24.0 mg/kg/injection, schedule: Q01DX005 (ip), vehicle: Klucel (hydroxypropylcellulose) (HPC)) was 86 % of control.

Consider `CCOC(=O)CCCC(=O)Cl`, for which the T/C by setting is: under setting [12], 94 % of control; under setting [1], 99 % of control; under setting [3], 96 % of control.

Take `NC(CCl)=NCC1C2CC3CC(C2)CC1C3` (centres undefined): the T/C by setting is: (dose: 7.5 mg/kg/injection, schedule: Q01DX005 (ip), vehicle: saline with Tween-80) 107 % of control and 116 % of control and 120 % of control; (dose: 15.0 mg/kg/injection, schedule: Q01DX005 (ip), vehicle: saline with Tween-80) 122 % of control; (dose: 30.0 mg/kg/injection, schedule: Q01DX005 (ip), vehicle: saline with Tween-80) 117 % of control.

As to `CCOCCN(CCOCC)c1ncnc2nc[nH]c12`, the T/C by setting is: (dose: 50.0 mg/kg/injection, schedule: Q01DX005 (ip), vehicle: saline) 102 % of control; (dose: 100.0 mg/kg/injection, schedule: Q01DX005 (ip), vehicle: saline) 102 % of control; (dose: 200.0 mg/kg/injection, schedule: Q01DX005 (ip), vehicle: saline) 98 % of control.

On to `CN(N=O)c1ccc(/C=C/c2ccnc3ccccc23)cc1`, for which the T/C (dose: 88.0 mg/kg/injection, schedule: Q01DX009 (ip), vehicle: saline with Tween-80) is 113 % of control; the T/C (dose: 132.0 mg/kg/injection, schedule: Q01DX009 (ip), vehicle: saline with Tween-80) was 118 % of control; the T/C under setting [3] is 154 % of control.

As to `Cc1ccc(NC2=NCCS2)cc1Cl`, the T/C by setting is: under setting [5], 110 % of control; under setting [6], 115 % of control; under setting [7], 89 % of control.

Regarding `CCOc1ccc(N2CC(=O)N3CCCC(C)N3C(=O)C2)cc1` (centres undefined), the T/C by setting is: under setting [8], 101 % of control; under setting [13], 101 % of control; under setting [14], 103 % of control.

Regarding `COc1ccc(NC(=O)CCC(=O)CC(=O)c2ccc(C)cc2)cc1`, the T/C under setting [9] was 105 % of control, the T/C under setting [10] is 106 % of control and the T/C under setting [11] was 101 % of control.

Regarding `O=C1C=CC(=O)C2=C1C1C3=C(C(=O)C=CC3=O)C2c2ccccc21`, the T/C was 110 % of control under setting [12], 106 % of control under setting [1] and 101 % of control under setting [3].

As for `CC(c1ccc(O)cc1)c1cc2c(cc1OCCO)OCO2` (centres undefined), the T/C runs as follows: under setting [8], 94 % of control; under setting [13], 91 % of control; under setting [14], 92 % of control.

For `O=C1/C(=C/c2cccnc2)CCc2ccccc21`, the T/C was 104 % of control (dose: 25.0 mg/kg/injection, schedule: Q01DX009 (ip), vehicle: saline with Tween-80); 116 % of control under setting [5]; 108 % of control under setting [12]; 102 % of control under setting [6]; 105 % of control under setting [1]; 109 % of control under setting [7]. Besides, under setting [3], the T/C is 95 % of control.

As for `CC(C)CCCC(C)C1CCC2C3CCC4CC(OP(=O)(O)O)CCC4(C)C3CCC12C` (centres undefined), the T/C is 99 % of control under setting [12], 96 % of control under setting [1] and 93 % of control under setting [3].

The values above are taken from PubChem BioAssay AID330 (DTP/NCI, 2004).
